# From PMC4411090, “Activating the Wnt/β-Catenin Pathway for the Treatment of Melanoma – Application of LY2090314, a Novel Selective Inhibitor of Glycogen Synthase Kinase-3” (PLoS ONE, 2015)
# Columns and labels:
# GSK3β = molecular target: T1, GSK3β (Homo sapiens, UniProt P49841); test: cell-free kinase assay with recombinant enzyme and phosphopeptide substrate; assay type: biochemical
# T1 construct: gene GSK3B; human recombinant
# GSK3α = molecular target: T2, GSK3α (Homo sapiens, UniProt P49840); test: as above; assay type: biochemical
# T2 construct: gene GSK3A; human recombinant
# T2 sequence (P49840 2-483): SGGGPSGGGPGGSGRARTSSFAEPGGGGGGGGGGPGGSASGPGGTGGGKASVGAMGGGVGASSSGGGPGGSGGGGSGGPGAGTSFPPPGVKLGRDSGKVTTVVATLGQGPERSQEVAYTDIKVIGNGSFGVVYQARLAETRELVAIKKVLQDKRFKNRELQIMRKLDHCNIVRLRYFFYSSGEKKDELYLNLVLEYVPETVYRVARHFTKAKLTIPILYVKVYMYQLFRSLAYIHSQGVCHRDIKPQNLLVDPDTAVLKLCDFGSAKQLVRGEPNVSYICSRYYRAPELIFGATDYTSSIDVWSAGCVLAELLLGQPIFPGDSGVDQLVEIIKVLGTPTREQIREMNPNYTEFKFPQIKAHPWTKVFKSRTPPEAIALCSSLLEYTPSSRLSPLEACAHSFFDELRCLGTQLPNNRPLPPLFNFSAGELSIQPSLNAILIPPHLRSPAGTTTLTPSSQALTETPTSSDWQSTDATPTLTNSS
# T1 sequence (P49841 whole entry): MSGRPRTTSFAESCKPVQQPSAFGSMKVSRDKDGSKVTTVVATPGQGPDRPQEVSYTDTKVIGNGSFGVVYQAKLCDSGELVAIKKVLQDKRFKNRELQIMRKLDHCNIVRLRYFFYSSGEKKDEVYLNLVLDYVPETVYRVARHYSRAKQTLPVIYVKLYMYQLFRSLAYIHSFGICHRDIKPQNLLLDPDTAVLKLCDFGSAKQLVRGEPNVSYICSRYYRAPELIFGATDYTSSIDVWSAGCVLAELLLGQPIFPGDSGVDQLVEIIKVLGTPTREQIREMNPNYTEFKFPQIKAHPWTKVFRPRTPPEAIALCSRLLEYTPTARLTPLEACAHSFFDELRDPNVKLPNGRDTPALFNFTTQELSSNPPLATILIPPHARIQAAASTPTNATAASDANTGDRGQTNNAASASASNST
smiles,measurement,setting,value
O=C1NC(=O)C(c2cnc3ccccn23)=C1c1cn2c3c(cc(F)cc13)CN(C(=O)N1CCCCC1)CC2 [LY2090314],IC50,GSK3β,0.9 nM
same,IC50,GSK3α,1.5 nM
